Starred links: 1 amine or outer side, 2 acyl side, 3 side chain; linkers in the order of their positions; H or OH if unused. Positions of bridges follow the written chain, without caps; N, C: chain ends. Non-standard residues stand in square brackets, D forms with d. Residues, ends and D or L forms follow the SMILES beside them. X2 = Cc1sc(C(=O)[C@@H]2CCCN2[*:2])cc1C1=C(c2cc(C(=O)[*:1])sc2C)CCC1; Leu(3R-OH) = CC(C)[C@@H](O)[C@H](N)C(=O)O; X1 = CCCCN([C@@H](CC(C)C)C(=O)[*:2])[*:1]; Orn = NCCC[C@H](N)C(=O)O

Series [1] is described as follows: observed water solubility and aggregation. Particulars: ring-open form; observation in words. Type of series: physicochemical. From the text: We have also analyzed the correlation between the empirical low-pH hydrophobicity of the peptides (as assessed from the retention times in reversed-phase HPLC) and toxicity against zebrafish embryos. Independent on the photoisomeric state and the type of toxicity assay, decreasing polarity of the peptides is accompanied by an increase in toxicity against zebrafish embryos (compare Figure 3A and 3B). Within the different series of peptides (the series are marked with different colors in Figure 3 for clarity) we get almost linear toxicity–hydrophobicity correlations in most cases, and all the outliers are readily explainable.

Series [2] has as its system D. rerio embryos. Briefly: D. rerio embryotoxicity "photoactivation" assay (ring-closed photoform in darkness, then in situ photoconversion). Conditions: for LD50 (opened)^1h / LD50 (opened)^24h: after 24 h with ring-closed form in dark, in situ illumination 10 min, λ = 570 nm, approx. 20 mW/cm^2; for LD50 (opened)^1h: mortality 1 h after illumination, embryos 4 dpf; for LD50 (opened)^1h / LD50 (opened)^24h / LD50 (closed)^24h: value ± STD; for LD50 (opened)^24h: mortality 24 h after illumination, embryos 5 dpf at readout; for LD50(closed)^24h/LD50(open)^24h ratio: phototherapeutic safety window, ring-closed 24 h LD50 (dark) divided by ring-open 24 h LD50 (direct application); for LD50 (closed)^24h: ring-closed photoform applied to embryos at 3 dpf, 24 h in the dark, sealed vials, E3 medium, 0.2% DMSO. Type of series: in vivo, Danio rerio. The protocol: (§1) To establish the assay for screening the photoswitchable peptides, we first studied the toxicity of our prototype 2 by varying the assay conditions. The parent peptide GS 1 was used as a control. […] We measured the doses causing the death of 50% embryos (LD50). We tested two different assay variations: in one version, the LD50(open) was determined after direct application of 1 or of the ring-open form of 2. In the other variant, the photoswitchable peptide was applied in the ring-closed photoform in the darkness, its LD50(closed) was recorded, and then in situ illumination (“photoactivation”) was applied to switch into the ring-open photoform and obtain the respective LD50(opened) values (see Figure 2 for the study design and the killing curves).
(§2) Figure 2 Two versions of the D. rerio embryotoxicity assay for DAE-modified peptides: timelines, peptide photostates, ages of larvae, and definitions of the measured characteristics. (A) Direct application of the non-photoswitchable parent GS 1 or of the ring-open photoform of our prototype 2, and the corresponding killing curves for 1 (C, top, black) and 2 (C, bottom, red). (B) “Photoactivation” assay: initial application of the ring-closed photoform, incubation in darkness, followed by in situ photoconversion into the ring-open(ed) photoform, with the corresponding killing curves for 1 (D, top) and 2 (D, bottom, green for ring-closed, red for ring-open isomers). The latter panel illustrates the “phototherapeutic safety window” (green arrow) as the difference in toxicity between the ring-closed and the ring-open isomers upon photoactivation.
(§3) Each time, 12–15 or 18–20 zebrafish embryos at 3 dpf were treated by applying the corresponding peptide dissolved in dimethyl sulfoxide (final dimethyl sulfoxide concentration was 0.2%). Double-concentrated peptide stock solutions (64–512 µg/mL) were prepared by weighing lyophilized peptides, dissolving in 10% dimethyl sulfoxide and constructing two-fold dilution series with ten–eleven dilution steps. In the photoconversion experiments, in order to prevent spontaneous photoswitching of the ring-closed peptides by vis light, zebrafish embryos and peptides were kept in the dark before the first readout, and the vials were sealed to avoid evaporation of the embryonic medium (E3) at prolonged incubation times. After the first screen, without exchanging any solution, the vials with embryos and ring-closed photoforms were exposed to intense illumination for 10 min (LUMATEC Superlite 410 light source, λ = 570 nm, irradiance approximately 20 mW/cm^2). Mortality was then determined under ambient light conditions at 1 h and 24 h after the illumination procedure.

For series [3], the system named is D. rerio embryos. Briefly: D. rerio embryotoxicity assay, direct application of ring-open photoform. Type of series: in vivo, Danio rerio. Conditions: direct application of 1 or ring-open photoform, zebrafish embryos at 3 dpf, final DMSO 0.2%, ambient light, value ± STD; for LD50 (open)^1h: 1 h incubation, 12–15 or 18–20 embryos; for LD50 (open)^3h: 3 h incubation; for LD50 (open)^24h: 24 h incubation. The protocol:
as §1, §2, §3

With `CCCCN1C(=O)[C@@H](Cc2ccccc2)NC(=O)[C@H](CC(C)C)NC(=O)[C@H](CCCN)NC(=O)[C@H]([C@@H](C)CC)NC(=O)c2cc(c(C)s2)C2=C(CCC2)c2cc(sc2C)C(=O)[C@@H]2CCCN2C(=O)[C@H](CC(C)C)NC(=O)[C@H](CCCN)NC(=O)[C@H]([C@@H](C)CC)NC(=O)[C@@H]1CC(C)C` [Peptide 11] (I[Orn]L[dF][X1]I[Orn]L; linker N-C via X2), the “water solubility and aggregation” value in series [1] is “very low water solubility and tendency to aggregate”. Further, in the series on D. rerio embryos [2], the “LD50 (opened)^1h” value is 4.0 ± 0.3 µg/mL, the “LD50 (opened)^24h” value is reported as 3.0 ± 1.0 µg/mL, the “LD50(closed)^24h/LD50(open)^24h ratio” value was 2.8 and the “LD50 (closed)^24h” value was 4.4 ± 0.2 µg/mL. Moreover, in the series with D. rerio embryos [3], the “LD50 (open)^1h” value is recorded as 3.0 ± 1.8 µg/mL, the “LD50 (open)^3h” value turned out to be 2.4 ± 0.7 µg/mL and the “LD50 (open)^24h” value is listed as 1.6 ± 0.1 µg/mL.

As to `Cc1sc2cc1C1=C(CCC1)c1cc(sc1C)C(=O)[C@@H]1CCCN1C(=O)[C@H](C(C)C)NC(=O)[C@H](CCCCN)NC(=O)[C@H](C(C)C)NC(=O)[C@H](CC(C)C)NC(=O)[C@H](CCCCN)NC(=O)[C@@H]1CCCN1C(=O)[C@@H](Cc1ccccc1)NC(=O)[C@H](C(C)C)NC(=O)[C@H](CCCCN)NC(=O)[C@H](CC(C)C)NC(=O)[C@H](CCCCN)NC(=O)[C@H](C(C)C)NC2=O` [Peptide 18] (VKLKV[dF]PKLVKV; linker N-C via X2), in the series with D. rerio embryos [2], the “LD50 (opened)^1h” value was 12.3 ± 1.5 µg/mL, the “LD50 (opened)^24h” value is 12.3 ± 1.5 µg/mL, the “LD50(closed)^24h/LD50(open)^24h ratio” value amounted to 30.8 and the “LD50 (closed)^24h” value is recorded as 12.3 ± 1.5 µg/mL. Besides, in the series on D. rerio embryos [3], the “LD50 (open)^1h” value is 0.9 ± 0.4 µg/mL, the “LD50 (open)^3h” value stood at 0.9 ± 0.4 µg/mL and the “LD50 (open)^24h” value came to 0.4 ± 0.2 µg/mL.

Regarding `Cc1sc2cc1C1=C(CCC1)c1cc(sc1C)C(=O)[C@@H]1CCCN1C(=O)[C@H](C(C)C)NC(=O)[C@H](CCCN)NC(=O)[C@H]([C@H](O)C(C)C)NC(=O)[C@@H]1CCCN1C(=O)[C@@H](Cc1ccccc1)NC(=O)[C@H](C(C)C)NC(=O)[C@H](CCCN)NC(=O)[C@H]([C@H](O)C(C)C)NC2=O` [Peptide 15] ([Leu(3R-OH)][Orn]V[dF]P[Leu(3R-OH)][Orn]V; linker N-C via X2), in the series on D. rerio embryos [2], the “LD50 (opened)^1h” value is listed as 22.9 ± 0.2 µg/mL, the “LD50 (opened)^24h” value came out at 7.2 ± 0.7 µg/mL, the “LD50(closed)^24h/LD50(open)^24h ratio” value is 7.8 and the “LD50 (closed)^24h” value worked out at 56.1 ± 12.2 µg/mL. For the same molecule, in the series on D. rerio embryos [3], the “LD50 (open)^1h” value is listed as 36.5 ± 2.1 µg/mL, the “LD50 (open)^3h” value was determined as 14.1 ± 6.0 µg/mL and the “LD50 (open)^24h” value came out at 7.2 ± 3.8 µg/mL.

The values are drawn from paper PMC6964649, “Light-controllable dithienylethene-modified cyclic peptides: photoswitching the in vivo toxicity in zebrafish embryos” (Beilstein Journal of Organic Chemistry, 2020).
